IC50 data for four compounds are collected here from ChEMBL document CHEMBL5247647, “Phenothiazine-Based LSD1 Inhibitor Promotes T-Cell Killing Response of Gastric Cancer Cells” (J Med Chem, 2023).

SMILES strings stand for the structures. Bounds are passed on as bounds.

For this test, the target named is Lysine-specific histone demethylase 1A (Homo sapiens, UniProt O60341). The test is described as follows: Inhibition of recombinant LSD1 (unknown origin) expressed in Escherichia coli BL21 (DE3) using H3K4me2 peptide as substrate incubated for 30 mins by fluorescence based microplate reader assay.
With `CN1CCN(CCCN2c3ccccc3Sc3ccccc32)CC1` [PERAZINE], the half-inhibitory concentration (IC50) was 0.909 µM. Consider `CN(C)CCCN1c2ccccc2Sc2ccc(C(F)(F)F)cc21` [TRIFLUPROMAZINE], for which the IC50 is more than 10 µM. Next, `CN(C)CCCN1c2ccccc2Sc2ccc(Cl)cc21` [CHLORPROMAZINE]: 5.14 µM; `CN(C)CCCN1c2ccccc2Sc2ccccc21` [PROMAZINE]: 4.71 µM.

For orientation: IC50 means the concentration needed to halve the response being measured.
